Measured values from US8012944B2, “Method for treating cancer using IAP antisense oligomer and chemotherapeutic agent” (Pharmascience Inc., priority 2003, dated 2011).
Oligonucleotides are written 5' to 3', each unit as a sugar letter and its base; * is a phosphorothioate linkage, no mark a phosphodiester; rarer units and linkages stand in square brackets, end groups in braces. Plain capitals give the bases only. d = 2'-deoxy (DNA); m = 2'-O-methyl

How the values were obtained:
Format in all cases: cell-based, human
[1] = test system: XIAP RNA; test: XIAP RNA knock-down in T24 cells (TaqMan quantitative PCR)
Source text: (§1) We used TaqMan quantitative PCR (described below) to assay for changes in mRNA levels after oligonucleotide treatment. We employed ELISA for determining XIAP protein levels and western blotting for determining HIAP1 protein levels. Transfection conditions were optimized with Lipofectamine plus or Lipofectamine 2000 (Life Technologies, Canada) on T24 bladder carcinoma cells or H460 non-small cell lung carcinoma cells, or lipofectin on SF-295 glioblastoma cells, using a fluorescein-tagged sense oligonucleotide (5′-mGmAGAAGATGACTGGTAAmCmA-3′; SEQ ID NO: 261) from XIAP spanning the start codon as a control. The results were visualized and gauged by epi-fluorescence microscopy. In the case of T24 cells, transfections were further optimized based on the ability of a published oligonucleotide to downregulate survivin expression (Li et al., Nat. Cell Biol. 1:461-466, 1999) (5′-U/TGTGCTATTCTGTGAAU/TU/T-3′ SEQ ID NO: 262). We optimized the transfection conditions based on the TaqMan results of survivin RNA knock-down detected with PCR primers and fluorescent probe, described in detail below. […] We then applied these conditions to screen for XIAP protein knock-down using the oligo library against T24 cells.
(§2) RNA was extracted from cells lysed in RLT buffer (QIAGEN, Valencia, Calif.), and purified using QIAGEN RNeasy columns/kits. Real-time quantitative PCR was performed on a Perkin-Elmer ABI 7700 Prism PCR machine. RNA was reverse transcribed and amplified according to the TaqMan Universal PCR Master Mix protocol of PE Biosystems, using primers and probes designed to specifically recognize XIAP, HIAP1, survivin, or GAPDH. For human survivin, the forward primer was 5′-[…]-3′ (SEQ ID NO: 263), the reverse primer was 5′-GAAAGGAAAGCGCAACCG-3′ (SEQ ID NO: 264), and the probe was 5′-(FAM)[…](TAMRA)-3′ (SEQ ID NO: 265). For human HIAP1, the forward primer was 5′-[…]-3′ (SEQ ID NO: 266), the reverse primer was 5′-[…]-3′ (SEQ ID NO: 267), and the probe was 5′-(FAM)[…](TAMRA)-3′ (SEQ ID NO: 268). For human XIAP, the forward primer was 5′-[…]-3′ (SEQ ID NO: 269), the reverse primer was 5′-[…]-3′ (SEQ ID NO: 270), and the probe was 5′-(FAM)[…](TAMRA)-3′ (SEQ ID NO: 271). For human GAPDH, the forward primer was 5′-GAAGGTGAAGGTCGGAGTC-3′ (SEQ ID NO: 272), the reverse primer was 5′-GAAGATGGTGATGGGATTC-3′ (SEQ ID NO: 273), and the probe was 5′-(JOE)[…](TAMRA)-3′ (SEQ ID NO: 274). FAM is 6-carboxyfluoroscein, JOE is 6-carboxy-4,5-dichloro-2,7-dimethoxyfluoroscein, and TAMRA is 6-carboxy-N,N,N′,N′-tetramethylrhodamine. FAM and JOE are 5′ reporter dyes, while TAMRA is a 3′ quencher dye.
(§3) Relative quantification of gene expression was performed as described in the PE Biosystems manual using GAPDH as an internal standard. The comparative Ct (cycle threshold) method was used for relative quantitation of IAP mRNA levels compared to GAPDH mRNA levels. Briefly, real-time fluorescence measurements were taken at each PCR cycle and the threshold cycle (Ct) value for each sample was calculated by determining the point at which fluorescence exceeded a threshold limit of 30 times the baseline standard deviation. The average baseline value and the baseline SD are calculated starting from the third cycle baseline value and stopping at the baseline value three cycles before the signal starts to exponentially rise. The PCR primers and/or probes for the specific IAPs were designed to span at least one exon-intron boundary separated by 1 kb or more of genomic DNA, to reduce the possibility of amplifying and detecting genomic DNA contamination. The specificity of the signal, and possible contamination from DNA, were verified by treating some RNA samples with either DNase or RNase, prior to performing the reverse transcription and PCR reaction steps.
The XIAP synthetic library of 96 antisense oligonucleotides was first screened for decreases in XIAP protein levels. […]

[2] = test system: XIAP protein; test: XIAP protein knock-down in T24 cells (XIAP ELISA, relative to total protein); conditions: for XIAP protein levels relative to total protein, compared to mock transfection (in words): first screen of the library
Source text: as §1
A standard colorimetric XIAP ELISA assay was performed using an affinity-purified rabbit polyclonal antibody to XIAP as a capture antibody, and was detected with a XIAP monoclonal antibody (MBL, Japan) and a biotinylated anti-mouse Ig antibody and horseradish peroxidase-conjugated streptavidin and TMB substrate. Alternatively, a polyclonal XIAP or HIAP1 antibody may be used to measure XIAP or HIAP1 protein levels, respectively.
The XIAP synthetic library of 96 antisense oligonucleotides was first screened for decreases in XIAP protein levels. Specifically, T24 cells (1.5×10^4 cells/well) were seeded in wells of a 96-well plate on day 1, and were cultured in antibiotic-free McCoy's medium for 24 hours. On day 2, the cells were transfected with XIAP antisense oligonucleotides as described above (oligonucleotides are labeled according to their plated position, i.e., A1 to H12, and include two repeats, A13 and B13 that contain lyophilized DNA pellets that stuck to the sealing membrane). Briefly, the nucleobase oligomers were diluted in 10 μl/well of serum-free, antibiotic-free McCoy's medium and then PLUS reagent was added. Lipofectamine was diluted in 10 μl/well of serum-free, antibiotic-free McCoy's medium, and both mixes were incubated for 15 minutes at room temperature. The mixes were then combined and incubated for 15 minutes at room temperature.
In the meantime, the complete medium was removed from the cells and 50 μl/well of serum-free, antibiotic-free medium was added to the cells. The transfection mixes were added to the well, and the cells were incubated for three hours. Then 30 μl/well of serum-free, antibiotic-free medium and 100 μl/well of antibiotic-free complete medium, containing 20% fetal bovine serum were added to each well.
At day 3, XIAP RNA levels were measured using quantitative real-time PCR techniques, as described above. At day 4, XIAP protein levels were measured by ELISA (FIGS. 1A, 1C, 1E, 1G, 1I, and 1K), and total cellular protein was measured biochemically (FIGS. 1B, 1D, 1F, 1H, 1J, and 1L; used to normalize the XIAP protein levels). The results were compared to a mock transfection sample (treated with the transfection agent but no oligonucleotide DNA was added, and then processed as for the other samples). Time course experiments determined that the optimal time for protein knock-down to be around 12 to 24 hours. […]

[3] = test system: HIAP1 mRNA; test: HIAP1 mRNA in SF295 cells, basal conditions (TaqMan); parameters: decrease of HIAP1 mRNA compared to mock or scrambled survivin control: concentration or dose not given beside the values; conditions: for HIAP1 mRNA levels (in words): SF295 cells (FIG. 21)
Experimental: as §2, §3
A library of 15 HIAP1 antisense nucleobase oligomers as oligonucleotides was screened for protein knock-down by western blot analysis and for RNA knock-down by TaqMan, using the primers and probes described in Example 3, above, under two different conditions. HIAP1 RNA levels may be detected using standard Northern blot analyses or RT-PCR techniques. The antisense oligonucleotides were administered to cells under basal conditions or under cycloheximide-induction conditions (24 hour treatment with sub-toxic doses). Cycloheximide (CHX) can lead to a 10- to 200-fold induction of HIAP1 mRNA depending on the cell line treated. […] This effect of CHX is via two distinct mechanisms of action. First, CHX activates NFkB, a known transcriptional inducer of HIAP1, by blocking the de novo synthesis of a labile protein, IkB, which is an inhibitor of NFkB. This effect is mimicked by puromycin, another protein synthesis inhibitor, and by TNF-alpha, which induces a signaling cascade leading to the phosphorylation, ubiquination, and degradation of IkB.
SF295 glioblastoma cells were transfected with lipofectin and oligonucleotide (scrambled survivin, no oligonucleotide, antisense APO 1 to APO 15) or left untreated. […]

[4] = test system: XIAP mRNA; test: XIAP mRNA knock-down in H460 cells (real-time RT-PCR / TaqMan)
Experimental: as §2, §3
A portion of the 96 nucleobase oligomers depicted in Table 2 were rescreened for their ability to knock-down XIAP mRNA in NCI-H460 cells at […] post-transfection.
One day prior to transfection, H460 cells were plated in 6- or 96-well tissue culture plates. Phosphorothioate antisense oligonucleotides were delivered into cells with Lipofectamine 2000 (Life Technologies) in the form of liposome-oligonucleotide complexes. Following a 4.5 or 6 h transfection, the transfection medium was replaced with RPMI medium containing 10% FBS, and the cells incubated for another 24 or 48 h.
Total RNA from H460 cells treated with liposome-oligonucleotide complexes for 6 hours was immediately isolated using RNeasy mini spin columns and DNase treatment (QIAGEN, Valencia, Calif.). Specific XIAP mRNA was measured using a real-time quantitative RT-PCR method. […]

[5] = test system: XIAP mRNA; test: as above; conditions: 2 × 2 MBO; NCI-H460 cells, 9 hours post-transfection; relative level (mock control 1.01)

| Sequence | XIAP down-regulation H460 RNA [4] | XIAP RNA [5] | also measured |
| --- | --- | --- | --- |
| CTACAGCTGCATGACAACT (antisense; sugars from the 5' end m2 d15 m2, backbone and T or U not given here; further chemistry not fully specified) [Code F4] |  |  | XIAP down-regulation T24 RNA [1]: 33%; XIAP down-regulation T24 protein [2]: 43%; XIAP protein levels relative to total protein, compared to mock transfection (in words) [2]: some decrease |
| ACCCATGCACAAAACTACC (chemistry not given here) [APO 4] |  |  | HIAP1 mRNA levels (in words) [3]: stress-induced increase in HIAP1 mRNA |
| TTCAACATGGAGATTCTAA (chemistry not given here) [APO 9] |  |  | decrease of HIAP1 mRNA compared to mock or scrambled survivin control ([3]; SF295 cells, six hours after transfection): ~50% |
| GCATTTTCGTTATTCATTG (chemistry not given here) [APO 11] |  |  | HIAP1 mRNA levels (in words) [3]: stress-induced increase in HIAP1 mRNA |
| ACCCTGGATACCATTTAGC (antisense; chemistry not fully specified) [Code F8] | 47% | 0.62 | XIAP protein levels relative to total protein, compared to mock transfection (in words) [2]: some decrease |
| CCTGTCCTTTAATTCTTAT (chemistry not given here) [APO 13] |  |  | HIAP1 mRNA levels (in words) [3]: stress-induced increase in HIAP1 mRNA |
| GGCTGCAATATTTCCTTTT (chemistry not given here) [APO 14] |  |  | HIAP1 mRNA levels (in words) [3]: stress-induced increase in HIAP1 mRNA |
| AGTTCTCAAAAGATAGTCT (antisense; sugars from the 5' end m2 d15 m2, backbone and T or U not given here; further chemistry not fully specified) [Code G5] | 30% | 0.68 |  |
| CTTTGATCTGGCTCAGACT (antisense; sugars from the 5' end m2 d15 m2, backbone, methylation of C and T or U not given here; further chemistry not fully specified) [Code G12] | 76% | 0.24 |  |
| AAAATTCTAAGTACCTGCA (mA*mAdAdAdTdTdCdTdAdAdGdTdAdCdCdTdGmC*mA; antisense) [Code A1] | 48% | 0.46 |  |
| ATTATTTTCTTAATGTCCT (antisense; sugars from the 5' end m2 d15 m2, backbone, methylation of C and T or U not given here; further chemistry not fully specified) [Code A10] | 29% | 0.85 |  |
| AAAGCATAAAATCCAGCTC (antisense; sugars from the 5' end m2 d15 m2, backbone, methylation of C and T or U not given here; further chemistry not fully specified) [Code C8] | 16% | 1.01 |  |
| AAGCTTCTCCTCTTGCAGG (antisense; sugars from the 5' end m2 d15 m2, linkages s1 o16 s1 (s phosphorothioate, o phosphodiester), methylation of C not given here) [Code F10] | 51% | 0.64 |  |
| TCGGGTATATGGTGTCTGA (antisense; chemistry not fully specified) [Code A6] | 72% | 0.27 |  |
| TCTGCCATGGATGGATTTC (antisense; sugars from the 5' end m2 d15 m2, backbone, methylation of C and T or U not given here; further chemistry not fully specified) [Code G7] | 41% | 0.66 |  |
